Assay results as given in US20140322360A1, “METHOD AND DEVICE FOR ATTRACTING BLOOD-SUCKING ARTHROPODS” (BIOGENTS AG, priority 2011, published 2014).

System: female mosquitoes
Assay: Y-olfactometer test of attractiveness (activation and orientation of mosquitoes)
Assay type: in vivo
Settings: A0, B0, C0 together, regardless of the CO2 concentration used
Excerpt: Olfactometer tests are particularly useful during product development. They are used to filter out the most promising candidate substances from a number of interesting attractants or repellents quickly and cost-effectively. In particular, the olfactometer 60 has the form of a “Y”. A cage with piercing joyful female mosquitoes is connected to the lower end 62 of the “Y” of the air conditioned tubular system of the olfactometer 60. The two arms 64 and 65 of the “Y” each include the control chamber 70 and test chamber 72. Air L flows through both chambers 70, 72 and is then combined in the base leg 66 of the “Y”. During the phase when the stimulus is given, the test mosquitoes can fly into the direction of movement B into the olfactometer 60 and choose between the test chamber 72 with air containing the stimulus and the control chamber 70 containing clean air. Air L flows through the olfactometer 60 in the direction opposite to the direction of movement B of the mosquitoes, the air L being entrained with the attractant from the test chamber 72. Firstly, the activation or mobilization of the test mosquitoes is determined. This refers to a non-directional fly away of the mosquitoes when a stimulus is given. […] Then the orientation is further determined by counting the number of mosquitoes in the test chamber 72. […]

O=C=O [CO2]
directional orientation Y: about 50% | undirected activation X: about 83%
